Measured values: patent US9211310B2, “Use of a Chinese medicine composition in preparing medicaments for treating secondary prevention of myocardial infarction” (TASLY PHARMACEUTICAL GROUP CO., LTD, priority 2010, dated 2015)

Tested on: patients after acute myocardial infarction
Assay: Life quality, Seattle Angina Questionnaire (SAQ), same clinical trial
Assay type: in vivo, human
Conditions: 12 months after treatment
Description: 3508 patients who were in accordance with the diagnostic standards of AMI for 28 days to 2 years and differentiated as Qi deficiency and blood stagnation syndrome by TCM were studied. 0.5 g Chinese medicine composition prepared by the method of EXAMPLE 1 (Coded as QSYQ) was administrated half an hour after meal, 3 times per day.
There were 19 questions in the Seattle angina questionnaire (SAQ), including 5 parts: physical limitation (PL), anginal stability (AS), anginal frequency (AF), treatment satisfaction (TS) and disease perception (DP). After being given necessary explanation by doctors, the questions were answered independently by patients.
They included the overall survival time, angina pectoris score, TCM symptom score and life quality score, where angina pectoris score, TCM symptom score and life quality score were evaluated at randomization, in 1st, 3rd, 6th, 9th, 12th month after treatment and 18th month after follow-up.
All evaluation results of SAQ were described during the period of observation, and Wilcoxon rank sum test was used for inter-group comparison.
The evaluation results in the SAQ were depicted in different observations, and inter-group comparison was tested by Wilcoxon Rank-sum test.

CC(=O)Oc1ccccc1C(=O)O [Control group, aspirine]
SAQ Question 1-5: Not limited, number of patients (FAS): 863 | SAQ Question 1-5: Not limited, percent of patients (FAS): (49.51%) | SAQ Question 1-5: Other reasons, number of patients (FAS): 11 | SAQ Question 1-5: Other reasons, percent of patients (FAS): (0.63%) | SAQ Question 1-5: Severely limited, number of patients (FAS): 13 | SAQ Question 1-5: Severely limited, percent of patients (FAS): (0.75%) | SAQ Question 1-5: Slightly limited, number of patients (FAS): 517 | SAQ Question 1-5: Slightly limited, percent of patients (FAS): (29.66%) | SAQ Question 1-9: Mildly limited, % of cases (FAS): (19.60%) | SAQ Question 1-9: Mildly limited, cases (FAS): 336 | SAQ Question 1-9: Moderately limited, % of cases (FAS): (20.42%) | SAQ Question 1-9: Moderately limited, cases (FAS): 350 | SAQ Question 1-9: Not limited, % of cases (FAS): (4.55%) | SAQ Question 1-9: Not limited, cases (FAS): 78 | SAQ Question 1-9: Other reasons, % of cases (FAS): (5.89%) | SAQ Question 1-9: Other reasons, cases (FAS): 101 | SAQ Question 1-9: Severely limited, % of cases (FAS): (31.62%) | SAQ Question 1-9: Severely limited, cases (FAS): 542 | SAQ Question 1-9: Slightly limited, % of cases (FAS): (17.91%) | SAQ Question 1-9: Slightly limited, cases (FAS): 307 | SAQ 2nd question: Clearly increased, % of cases (PP): (0.14%) | SAQ 2nd question: Clearly increased, cases (PP): 2 | SAQ 2nd question: Clearly reduced, % of cases (PP): (30.04%) | SAQ 2nd question: Clearly reduced, cases (PP): 428 | SAQ 2nd question: Same, % of cases (PP): (37.05%) | SAQ 2nd question: Same, cases (PP): 528 | SAQ 2nd question: Slightly increased, % of cases (PP): (1.96%) | SAQ 2nd question: Slightly increased, cases (PP): 28 | SAQ 2nd question: Slightly reduced, % of cases (PP): (30.81%) | SAQ 2nd question: Slightly reduced, cases (PP): 439 | SAQ 3rd question: 1-2 times per week, % of cases (PP): (30.81%) | SAQ 3rd question: 1-2 times per week, cases (PP): 439 | SAQ 3rd question: 1-3 times per day, % of cases (PP): (1.96%) | SAQ 3rd question: 1-3 times per day, cases (PP): 28 | SAQ 3rd question: <1 time per week, % of cases (PP): (30.04%) | SAQ 3rd question: <1 time per week, cases (PP): 428 | SAQ 3rd question: No onset, % of cases (PP): (0.00%) | SAQ 3rd question: No onset, cases (PP): 0 | SAQ 3rd question: ≧3 times per week, % of cases (PP): (37.05%) | SAQ 3rd question: ≧3 times per week, cases (PP): 528 | SAQ 3rd question: ≧4 times per day, % of cases (PP): (0.14%) | SAQ 3rd question: ≧4 times per day, cases (PP): 2 | SAQ Question 1-3: Mildly limited, number of patients (PP): 30 | SAQ Question 1-3: Mildly limited, percent of patients (PP): (2.11%) | SAQ Question 1-3: Moderately limited, number of patients (PP): 3 | SAQ Question 1-3: Moderately limited, percent of patients (PP): (0.21%) | SAQ Question 1-3: Not limited, number of patients (PP): 1225 | SAQ Question 1-3: Not limited, percent of patients (PP): (86.03%) | SAQ Question 1-3: Other reasons, number of patients (PP): 8 | SAQ Question 1-3: Other reasons, percent of patients (PP): (0.56%) | SAQ Question 1-3: Severely limited, number of patients (PP): 1 | SAQ Question 1-3: Severely limited, percent of patients (PP): (0.07%) | SAQ Question 1-3: Slightly limited, number of patients (PP): 157 | SAQ Question 1-3: Slightly limited, percent of patients (PP): (11.03%) | SAQ Question 1-4: Mildly limited, number of patients (PP): 177 | SAQ Question 1-4: Mildly limited, percent of patients (PP): (12.43%) | SAQ Question 1-4: Moderately limited, number of patients (PP): 41 | SAQ Question 1-4: Moderately limited, percent of patients (PP): (2.88%) | SAQ Question 1-4: Not limited, number of patients (PP): 724 | SAQ Question 1-4: Not limited, percent of patients (PP): (50.84%) | SAQ Question 1-4: Other reasons, number of patients (PP): 11 | SAQ Question 1-4: Other reasons, percent of patients (PP): (0.77%) | SAQ Question 1-4: Severely limited, number of patients (PP): 2 | SAQ Question 1-4: Severely limited, percent of patients (PP): (0.14%) | SAQ Question 1-4: Slightly limited, number of patients (PP): 469 | SAQ Question 1-4: Slightly limited, percent of patients (PP): (32.94%) | SAQ Question 1-5: Mildly limited, number of patients (PP): 198 | SAQ Question 1-5: Mildly limited, percent of patients (PP): (13.93%) | SAQ Question 1-5: Moderately limited, number of patients (PP): 52 | SAQ Question 1-5: Moderately limited, percent of patients (PP): (3.66%) | SAQ Question 1-5: Not limited, number of patients (PP): 736 | SAQ Question 1-5: Not limited, percent of patients (PP): (51.79%) | SAQ Question 1-5: Other reasons, number of patients (PP): 10 | SAQ Question 1-5: Other reasons, percent of patients (PP): (0.70%) | SAQ Question 1-5: Severely limited, number of patients (PP): 3 | SAQ Question 1-5: Severely limited, percent of patients (PP): (0.21%) | SAQ Question 1-5: Slightly limited, number of patients (PP): 422
